In publication PMC4522657, “Identification of a DYRK1A Inhibitor that Induces Degradation of the Target Kinase using Co-chaperone CDC37 fused with Luciferase nanoKAZ” (Scientific Reports, 2015):

Experiments:
Assay type in all cases: biochemical
AurA/TPX2 = target: T1, AurA/TPX2 (Homo sapiens, UniProt O14965); assay: Kinase panel, CaNDY 1 µM; settings: CaNDY 1 µM relative to DMSO
T1 construct: purchased Carna Biosciences
Description: (§1) Detailed information on the assay conditions is available on the website of Carna Biosciences (http://www.carnabio.com/english/index.html; Kobe, Japan). In brief, full-length human recombinant kinases were expressed using a baculovirus expression system as amino-terminal GST-fusion proteins, and purified by glutathione-Sepharose chromatography. The GenBank accession numbers of DYRK1A, DYRK1B, DYRK2, and DYRK3 were NP_001387.2, NP_004705.1, NP_003574.1, and NP_003573.2. Kinase activities were evaluated by Off-chip Mobility Shift Assay after reaction of 1 μM of the substrate DYRKtide-F with ATP (25 μM for DYRK1A, 50 μM for DYRK1B, 10 μM for DYRK2, and 5 μM for DYRK3). For each compound, a DMSO solution was diluted in assay buffer to yield a final concentration of 1% DMSO. After incubation for one hour at room temperature, substrate phosphorylation was analyzed by electrophoretic separation of the substrate and products using a Caliper LC3000 platform (Caliper Life Sciences, Mountain View, CA, USA). The phosphorylated product (P)/(P + substrate) ratio was calculated at each concentration of each small molecule and the percent inhibition was expressed relative to a control assay in the absence of the small molecule. […] The IC50 of each compound was calculated by interpolation on a log-concentration-response curve fitted with a four-parameter logistic equation.
(§2) All kinase assays were carried out at Carna Biosciences. The inhibitory map was made with Kinome Render[36].

CDC2/CycB1 = target: T2, CDC2/CycB1 (Homo sapiens, UniProt P06493); assay: Kinase panel, CaNDY 1 µM; settings: CaNDY 1 µM relative to DMSO
T2 construct: purchased Carna Biosciences
Description: as §1, §2

CDK2/CycA2 = target: T3, CDK2/CycA2 (Homo sapiens, UniProt P24941); assay: Kinase panel, CaNDY 1 µM; settings: CaNDY 1 µM relative to DMSO
T3 construct: purchased Carna Biosciences
Description: as §1, §2

CDK2/CycE1 = target: T4, CDK2/CycE1 (Homo sapiens, UniProt P24941); assay: Kinase panel, CaNDY 1 µM; settings: CaNDY 1 µM relative to DMSO
T4 construct: purchased Carna Biosciences
Description: as §1, §2

CDK9/CycT1 = target: T5, CDK9/CycT1 (Homo sapiens, UniProt P50750); assay: Kinase panel, CaNDY 1 µM; settings: CaNDY 1 µM relative to DMSO
T5 construct: purchased Carna Biosciences
Description: as §1, §2

CK1ε = target: T6, CK1ε (Homo sapiens, UniProt P49674); assay: Kinase panel, CaNDY 1 µM; settings: CaNDY 1 µM relative to DMSO
T6 construct: purchased Carna Biosciences
Description: as §1, §2

DDR2 = target: T7, DDR2 (Homo sapiens, UniProt Q16832); assay: Kinase panel, CaNDY 1 µM; settings: CaNDY 1 µM relative to DMSO
T7 construct: purchased Carna Biosciences
Description: as §1, §2

FAK = target: T8, FAK (Homo sapiens, UniProt Q05397); assay: Kinase panel, CaNDY 1 µM; settings: CaNDY 1 µM relative to DMSO
T8 construct: purchased Carna Biosciences
T8 sequence (Q05397 whole entry): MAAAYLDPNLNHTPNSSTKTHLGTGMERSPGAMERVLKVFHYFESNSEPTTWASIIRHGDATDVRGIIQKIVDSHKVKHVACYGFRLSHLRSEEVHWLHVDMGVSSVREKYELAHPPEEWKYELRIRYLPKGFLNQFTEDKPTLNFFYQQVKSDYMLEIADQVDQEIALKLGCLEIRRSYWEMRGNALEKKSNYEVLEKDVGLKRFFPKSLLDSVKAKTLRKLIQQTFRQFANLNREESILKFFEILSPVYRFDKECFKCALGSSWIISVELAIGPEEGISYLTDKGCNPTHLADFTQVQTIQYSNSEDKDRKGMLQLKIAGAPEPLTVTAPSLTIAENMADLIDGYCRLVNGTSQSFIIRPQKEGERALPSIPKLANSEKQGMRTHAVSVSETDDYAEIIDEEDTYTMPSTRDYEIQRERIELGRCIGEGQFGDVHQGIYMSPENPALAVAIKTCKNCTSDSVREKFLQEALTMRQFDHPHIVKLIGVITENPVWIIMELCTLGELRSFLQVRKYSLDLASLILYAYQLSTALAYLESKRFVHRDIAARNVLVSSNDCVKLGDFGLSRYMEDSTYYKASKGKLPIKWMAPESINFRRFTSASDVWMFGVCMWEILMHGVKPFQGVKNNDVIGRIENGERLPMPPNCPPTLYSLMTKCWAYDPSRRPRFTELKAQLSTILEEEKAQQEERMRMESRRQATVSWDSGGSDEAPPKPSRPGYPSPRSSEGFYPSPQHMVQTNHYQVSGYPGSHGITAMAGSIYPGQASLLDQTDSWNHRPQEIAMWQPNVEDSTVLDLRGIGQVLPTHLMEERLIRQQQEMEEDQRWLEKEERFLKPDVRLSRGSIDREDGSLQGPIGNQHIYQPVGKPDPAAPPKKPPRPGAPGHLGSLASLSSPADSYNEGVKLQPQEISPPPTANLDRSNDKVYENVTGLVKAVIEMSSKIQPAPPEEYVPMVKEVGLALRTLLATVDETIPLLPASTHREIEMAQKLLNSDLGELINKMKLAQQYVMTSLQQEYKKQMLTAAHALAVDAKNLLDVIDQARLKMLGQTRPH
Description: as §1, §2

JNK2 = target: T9, JNK2 (Homo sapiens, UniProt P45984); assay: Kinase panel, CaNDY 1 µM; settings: CaNDY 1 µM relative to DMSO
T9 construct: purchased Carna Biosciences
Description: as §1, §2

KIT = target: T10, KIT (Homo sapiens, UniProt P10721); assay: Kinase panel, CaNDY 1 µM; settings: CaNDY 1 µM relative to DMSO
T10 construct: purchased Carna Biosciences
Description: as §1, §2

MAP2K1_Cascade = target: T11, MAP2K1_Cascade (Homo sapiens, UniProt Q02750); assay: Kinase panel, CaNDY 1 µM; settings: CaNDY 1 µM relative to DMSO
T11 construct: purchased Carna Biosciences
Description: as §1, §2

MAPKAPK5 = target: T12, MAPKAPK5 (Homo sapiens, UniProt Q8IW41); assay: Kinase panel, CaNDY 1 µM; settings: CaNDY 1 µM relative to DMSO
T12 construct: purchased Carna Biosciences
Description: as §1, §2

MARK4 = target: T13, MARK4 (Homo sapiens, UniProt Q96L34); assay: Kinase panel, CaNDY 1 µM; settings: CaNDY 1 µM relative to DMSO
T13 construct: purchased Carna Biosciences
T13 sequence (Q96L34 whole entry): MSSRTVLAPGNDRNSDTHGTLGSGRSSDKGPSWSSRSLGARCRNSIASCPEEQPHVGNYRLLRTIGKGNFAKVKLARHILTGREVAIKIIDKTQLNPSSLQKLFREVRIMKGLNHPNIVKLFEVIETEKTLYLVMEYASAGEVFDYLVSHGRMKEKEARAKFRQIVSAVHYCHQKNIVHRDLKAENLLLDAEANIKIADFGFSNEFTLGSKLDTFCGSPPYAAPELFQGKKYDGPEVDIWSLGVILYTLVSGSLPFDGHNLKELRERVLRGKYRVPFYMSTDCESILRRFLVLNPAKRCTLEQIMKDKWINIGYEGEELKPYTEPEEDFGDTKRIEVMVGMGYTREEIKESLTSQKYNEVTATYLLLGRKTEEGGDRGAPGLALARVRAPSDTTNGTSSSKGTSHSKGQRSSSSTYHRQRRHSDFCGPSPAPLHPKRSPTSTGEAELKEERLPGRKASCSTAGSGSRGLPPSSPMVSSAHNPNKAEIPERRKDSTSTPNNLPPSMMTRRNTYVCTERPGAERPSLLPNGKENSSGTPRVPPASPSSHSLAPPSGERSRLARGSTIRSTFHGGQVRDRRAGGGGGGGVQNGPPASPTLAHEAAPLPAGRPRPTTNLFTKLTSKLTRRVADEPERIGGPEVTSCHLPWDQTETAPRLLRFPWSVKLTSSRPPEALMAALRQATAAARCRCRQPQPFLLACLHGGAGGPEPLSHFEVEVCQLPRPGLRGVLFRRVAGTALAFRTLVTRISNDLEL
Description: as §1, §2

MET(Y1235D) = target: T14, MET(Y1235D) (Homo sapiens, UniProt P08581, Y1235D); assay: Kinase panel, CaNDY 1 µM; settings: CaNDY 1 µM relative to DMSO
T14 construct: purchased Carna Biosciences
Description: as §1, §2

MRCKα = target: T15, MRCKα (Homo sapiens, UniProt Q5VT25); assay: Kinase panel, CaNDY 1 µM; settings: CaNDY 1 µM relative to DMSO
T15 construct: purchased Carna Biosciences
T15 sequence (Q5VT25 whole entry): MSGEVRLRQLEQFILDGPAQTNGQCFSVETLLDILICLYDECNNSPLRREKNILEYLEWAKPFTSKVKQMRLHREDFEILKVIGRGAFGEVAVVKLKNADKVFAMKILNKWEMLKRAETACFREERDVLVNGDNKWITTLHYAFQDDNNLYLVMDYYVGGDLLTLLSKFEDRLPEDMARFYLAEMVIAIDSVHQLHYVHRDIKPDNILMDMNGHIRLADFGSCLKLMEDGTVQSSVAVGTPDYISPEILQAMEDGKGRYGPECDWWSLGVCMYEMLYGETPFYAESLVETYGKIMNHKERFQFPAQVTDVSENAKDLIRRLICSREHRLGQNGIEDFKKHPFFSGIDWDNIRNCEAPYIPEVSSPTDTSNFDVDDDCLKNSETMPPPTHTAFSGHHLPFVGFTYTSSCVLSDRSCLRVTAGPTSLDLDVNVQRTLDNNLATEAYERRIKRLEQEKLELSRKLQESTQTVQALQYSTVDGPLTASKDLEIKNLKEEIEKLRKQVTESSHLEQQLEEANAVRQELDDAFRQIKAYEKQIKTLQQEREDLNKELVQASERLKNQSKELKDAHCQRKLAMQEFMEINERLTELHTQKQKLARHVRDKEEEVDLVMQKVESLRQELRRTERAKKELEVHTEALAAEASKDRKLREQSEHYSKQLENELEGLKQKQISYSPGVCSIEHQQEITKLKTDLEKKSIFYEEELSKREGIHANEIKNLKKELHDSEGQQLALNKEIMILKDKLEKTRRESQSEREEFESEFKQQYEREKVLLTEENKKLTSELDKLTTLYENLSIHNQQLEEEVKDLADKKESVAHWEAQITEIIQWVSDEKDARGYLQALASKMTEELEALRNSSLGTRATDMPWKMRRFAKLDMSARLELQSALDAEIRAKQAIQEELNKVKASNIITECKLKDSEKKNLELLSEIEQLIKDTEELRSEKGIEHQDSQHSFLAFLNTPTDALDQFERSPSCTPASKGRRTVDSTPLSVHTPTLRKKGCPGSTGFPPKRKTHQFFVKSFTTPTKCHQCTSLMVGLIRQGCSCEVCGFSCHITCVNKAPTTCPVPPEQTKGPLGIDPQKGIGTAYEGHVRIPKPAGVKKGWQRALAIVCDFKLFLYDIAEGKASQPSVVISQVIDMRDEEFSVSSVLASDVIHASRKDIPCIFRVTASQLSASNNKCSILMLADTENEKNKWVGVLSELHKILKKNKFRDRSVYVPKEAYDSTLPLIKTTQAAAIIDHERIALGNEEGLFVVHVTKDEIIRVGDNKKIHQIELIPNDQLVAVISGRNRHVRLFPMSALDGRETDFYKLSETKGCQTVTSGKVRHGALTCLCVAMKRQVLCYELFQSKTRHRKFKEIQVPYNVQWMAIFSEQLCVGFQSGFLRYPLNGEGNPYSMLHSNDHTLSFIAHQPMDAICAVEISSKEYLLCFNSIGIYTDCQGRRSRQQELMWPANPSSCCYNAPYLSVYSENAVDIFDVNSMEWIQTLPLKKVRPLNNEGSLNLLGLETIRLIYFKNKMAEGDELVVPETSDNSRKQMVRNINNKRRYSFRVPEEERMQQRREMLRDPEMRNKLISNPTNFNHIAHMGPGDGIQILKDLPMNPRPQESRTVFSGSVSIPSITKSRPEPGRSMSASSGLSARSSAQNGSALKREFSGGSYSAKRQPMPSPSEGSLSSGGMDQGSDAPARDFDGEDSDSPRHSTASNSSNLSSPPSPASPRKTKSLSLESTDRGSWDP
Description: as §1, §2

NEK7 = target: T16, NEK7 (Homo sapiens, UniProt Q8TDX7); assay: Kinase panel, CaNDY 1 µM; settings: CaNDY 1 µM relative to DMSO
T16 construct: purchased Carna Biosciences
Description: as §1, §2

PKCθ = target: T17, PKCθ (Homo sapiens, UniProt Q04759); assay: Kinase panel, CaNDY 1 µM; settings: CaNDY 1 µM relative to DMSO
T17 construct: purchased Carna Biosciences
Description: as §1, §2

PKD2 = target: T18, PKD2 (Homo sapiens, UniProt Q9BZL6); assay: Kinase panel, CaNDY 1 µM; settings: CaNDY 1 µM relative to DMSO
T18 construct: purchased Carna Biosciences
T18 sequence (Q9BZL6 whole entry): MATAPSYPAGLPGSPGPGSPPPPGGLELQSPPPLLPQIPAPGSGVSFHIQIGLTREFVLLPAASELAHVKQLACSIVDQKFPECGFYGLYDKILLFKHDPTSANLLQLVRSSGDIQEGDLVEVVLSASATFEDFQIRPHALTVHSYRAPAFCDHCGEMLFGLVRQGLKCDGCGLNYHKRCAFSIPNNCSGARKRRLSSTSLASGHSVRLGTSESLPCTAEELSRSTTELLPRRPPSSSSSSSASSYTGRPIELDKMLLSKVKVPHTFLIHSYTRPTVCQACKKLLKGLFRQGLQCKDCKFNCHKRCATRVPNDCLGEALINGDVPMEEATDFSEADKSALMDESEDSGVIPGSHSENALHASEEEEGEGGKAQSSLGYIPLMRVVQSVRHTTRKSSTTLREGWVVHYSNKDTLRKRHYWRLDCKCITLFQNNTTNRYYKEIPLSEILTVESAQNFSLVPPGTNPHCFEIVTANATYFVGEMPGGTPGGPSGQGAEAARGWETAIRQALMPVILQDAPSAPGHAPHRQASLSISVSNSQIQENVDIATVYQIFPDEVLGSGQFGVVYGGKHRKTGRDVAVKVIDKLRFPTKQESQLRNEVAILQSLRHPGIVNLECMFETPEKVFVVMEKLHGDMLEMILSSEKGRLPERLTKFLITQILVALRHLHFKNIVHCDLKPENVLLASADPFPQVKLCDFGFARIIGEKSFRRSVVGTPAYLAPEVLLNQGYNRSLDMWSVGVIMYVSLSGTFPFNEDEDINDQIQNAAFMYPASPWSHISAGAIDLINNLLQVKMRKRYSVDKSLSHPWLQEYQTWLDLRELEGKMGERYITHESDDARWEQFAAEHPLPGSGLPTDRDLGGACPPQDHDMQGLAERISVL
Description: as §1, §2

YES = target: T19, YES (Homo sapiens, UniProt P07947); assay: Kinase panel, CaNDY 1 µM; settings: CaNDY 1 µM relative to DMSO
T19 construct: purchased Carna Biosciences
Description: as §1, §2

FGFR3 = target: T20, FGFR3 (Homo sapiens, UniProt P22607); assay: Kinase panel, CaNDY 1 µM; settings: CaNDY 1 µM relative to DMSO
T20 construct: purchased Carna Biosciences

PYK2 = target: T21, PYK2 (Homo sapiens, UniProt Q14289); assay: Kinase panel, CaNDY 1 µM; settings: CaNDY 1 µM relative to DMSO
T21 construct: purchased Carna Biosciences

CaMK2γ = target: T22, CaMK2γ (Homo sapiens, UniProt Q13555); assay: Kinase panel, CaNDY 1 µM; settings: CaNDY 1 µM relative to DMSO
T22 construct: purchased Carna Biosciences

IRAK4 = target: T23, IRAK4 (Homo sapiens, UniProt Q9NWZ3); assay: Kinase panel, CaNDY 1 µM; settings: CaNDY 1 µM relative to DMSO
T23 construct: purchased Carna Biosciences

MAP2K2_Cascade = target: T24, MAP2K2_Cascade (Homo sapiens, UniProt P36507); assay: Kinase panel, CaNDY 1 µM; settings: CaNDY 1 µM relative to DMSO
T24 construct: purchased Carna Biosciences

PDHK4 = target: T25, PDHK4 (Homo sapiens, UniProt Q16654); assay: Kinase panel, CaNDY 1 µM; settings: CaNDY 1 µM relative to DMSO
T25 construct: purchased Carna Biosciences
T25 sequence (Q16654 whole entry): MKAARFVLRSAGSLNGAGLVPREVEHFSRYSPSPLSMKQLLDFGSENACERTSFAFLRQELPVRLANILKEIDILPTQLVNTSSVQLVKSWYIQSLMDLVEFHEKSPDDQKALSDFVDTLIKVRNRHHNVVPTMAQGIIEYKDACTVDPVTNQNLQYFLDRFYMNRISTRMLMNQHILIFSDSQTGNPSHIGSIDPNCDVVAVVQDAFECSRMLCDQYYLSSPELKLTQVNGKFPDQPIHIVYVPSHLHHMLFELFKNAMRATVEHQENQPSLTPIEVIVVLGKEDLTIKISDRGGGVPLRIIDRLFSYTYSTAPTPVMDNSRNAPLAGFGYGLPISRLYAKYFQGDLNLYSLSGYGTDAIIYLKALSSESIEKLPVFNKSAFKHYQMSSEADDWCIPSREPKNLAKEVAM

PIK3CA/PIK3R1 = target: T26, PIK3CA/PIK3R1 (Homo sapiens, UniProt P42336); assay: Kinase panel, CaNDY 1 µM; settings: CaNDY 1 µM relative to DMSO
T26 construct: purchased Carna Biosciences

GST-tagged human DYRK1A = target: T27, GST-tagged human DYRK1A (Homo sapiens, UniProt Q13627); assay: ATP kinetics assay
T27 construct: purchased Life Technologies PV3785
Experimental: The kinase reaction for ATP kinetics was performed in a reaction mixture containing serially diluted inhibitors, 10 mM MOPS-KOH (pH 7.0), 10 mM magnesium acetate, 200 μM EDTA, 2.5–40 μM ATP, 0.125–0.4 μCi [γ-^32P]ATP, 5 μM DYRKtide (Anaspec, CA, USA), and 1 nM of GST-tagged human DYRK1A (Cat# PV3785, Life Technologies), for a final volume of 25 μl. The final concentration of DMSO was adjusted to 0.1%, regardless of the inhibitor concentration. The reaction mixture was incubated at 30 °C for 15 min, and phosphoric acid (final 5%) was then added to stop the reaction. 25 μL of the reaction mixture was dispensed onto P81, a phosphocellulose membrane (Whatman, GE Healthcare), and washed four times in 5% phosphoric acid. Cherenkov light from the incorporated ^32P was measured using a liquid scintillation counter. The kinase assay conditions, including the incubation period and the concentration of the kinases and substrates, were optimized to maintain linearity during the incubation. The net radioactivity was determined by subtracting the background count from the reaction mixture without kinase. The amount of incorporated ^32P was calculated from the standard line. The Km and Ki values were calculated with Prism6 software (GraphPad Software, San Diego, CA, USA) using the competitive inhibition model.

## [H]/N=C1/NC(=O)C(=Cc2ccc3c(c2)CCO3)S1 [CaNDY, (Z)-5-[(2,3-dihydrobenzofuran-5-yl)methylene]-2-iminothiazolidin-4-one]
AurA/TPX2
  remaining activity at 1 µM: 98.8%
CDC2/CycB1
  remaining activity at 1 µM: 65.7%
CDK2/CycA2
  %Activity: 86.3%
CDK2/CycE1
  %Activity: 87.5%
CDK9/CycT1
  remaining activity at 1 µM: 19.4%
CK1ε
  remaining activity at 1 µM: 89.4%
DDR2
  remaining activity at 1 µM: 101%
FAK
  remaining activity at 1 µM: 98.5%
JNK2
  %Activity: 102.6%
KIT
  remaining activity at 1 µM: 99.3%
MAP2K1_Cascade
  remaining activity at 1 µM: 99.3%
MAPKAPK5
  remaining activity at 1 µM: 95.5%
MARK4
  %Activity: 94.3%
MET(Y1235D)
  %Activity: 99.0%
MRCKα
  remaining activity at 1 µM: 128%
NEK7
  remaining activity at 1 µM: 102%
PKCθ
  remaining activity at 1 µM: 74.9%
PKD2
  remaining activity at 1 µM: 83.3%
YES
  remaining activity at 1 µM: 101%
FGFR3
  remaining activity at 1 µM: 104%
PYK2
  remaining activity at 1 µM: 98.7%
CaMK2γ
  remaining activity at 1 µM: 101%
IRAK4
  %Activity: 100.8%
MAP2K2_Cascade
  remaining activity at 1 µM: 94.7%
PDHK4
  remaining activity at 1 µM: 92%
PIK3CA/PIK3R1
  remaining activity at 1 µM: 38.5%
GST-tagged human DYRK1A; competitive inhibition model, 2.5–40 μM ATP
  Ki: 1.92 nM
GST-tagged human DYRK1A; double-reciprocal plots
  mode of inhibition: competed with ATP on a single site of DYRK1A
